Measurements as given in PubChem BioAssay (NCI).
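Exposure lasted 48 hours, with cells grown in 96-well plates and compounds tested at five concentrations. GI50 marks 50% less growth. TGI: total growth inhibition.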

Tests used:
Test in all cases: NCI tumour cell line growth inhibition, 48 h
[1] = tested on: 786-0 renal
[2] = tested on: A498 renal
[3] = tested on: A549 NSCLC
[4] = tested on: ACHN renal
[5] = tested on: BT-549 breast
[6] = tested on: CAKI-1 renal
[7] = tested on: CCRF-CEM leukemia
[8] = tested on: COLO 205 colon
[9] = tested on: DU-145 prostate
[10] = tested on: EKVX NSCLC
[11] = tested on: HCC-2998 colon
[12] = tested on: HCT-116 colon
[13] = tested on: HCT-15 colon
[14] = tested on: HL-60(TB) leukemia
[15] = tested on: HOP-62 NSCLC
[16] = tested on: HOP-92 NSCLC
[17] = tested on: HS 578T breast
[18] = tested on: HT29 colon
[19] = tested on: IGROV1 ovarian
[20] = tested on: K-562 leukemia
[21] = tested on: KM12 colon
[22] = tested on: LOX IMVI melanoma
[23] = tested on: M14 melanoma
[24] = tested on: MALME-3M melanoma
[25] = tested on: MCF7 breast
[26] = tested on: MDA-MB-231 breast
[27] = tested on: MDA-MB-435
[28] = tested on: MDA-MB-468 breast
[29] = tested on: MOLT-4 leukemia

**Q.** With `CC(=O)Nc1ccc(-n2cnc3cc(-c4ccc(O)cc4)ccc32)cc1C(F)(F)F` as the molecule, how does the GI50 [1] read?
**A.** 8.92 µM

**Q.** And the TGI [1]?
**A.** 39.1 µM

**Q.** And the GI50 [2]?
**A.** 25.6 µM

**Q.** And the TGI [2]?
**A.** 80.5 µM

**Q.** And the GI50 [3]?
**A.** 5.34 µM

**Q.** And the TGI [3]?
**A.** > 100 µM

**Q.** What about the GI50 [4] of the same molecule?
**A.** 6.62 µM

**Q.** What about the TGI [4] of the same molecule?
**A.** 43.7 µM

**Q.** What about the GI50 [5] of the same molecule?
**A.** 4.76 µM

**Q.** What about the TGI [5] of the same molecule?
**A.** 20.3 µM

**Q.** And the GI50 [6]?
**A.** 8.34 µM

**Q.** And the TGI [6]?
**A.** 42 µM

**Q.** What about the GI50 [7] of the same molecule?
**A.** 6.65 µM

**Q.** And the TGI [7]?
**A.** > 100 µM

**Q.** What about the GI50 [8] of the same molecule?
**A.** 11.2 µM

**Q.** What about the TGI [8] of the same molecule?
**A.** 42.3 µM

**Q.** And the GI50 [9]?
**A.** 12.2 µM

**Q.** What about the TGI [9] of the same molecule?
**A.** 46.9 µM

**Q.** And the GI50 [10]?
**A.** 9.92 µM

**Q.** What about the TGI [10] of the same molecule?
**A.** 33.8 µM

**Q.** What about the GI50 [11] of the same molecule?
**A.** 5.31 µM

**Q.** What about the TGI [11] of the same molecule?
**A.** 26.8 µM

**Q.** And the GI50 [12]?
**A.** 6.86 µM

**Q.** And the TGI [12]?
**A.** > 100 µM

**Q.** What about the GI50 [13] of the same molecule?
**A.** 4.75 µM

**Q.** What about the TGI [13] of the same molecule?
**A.** > 100 µM

**Q.** And the GI50 [14]?
**A.** 2.9 µM

**Q.** What about the TGI [14] of the same molecule?
**A.** 13.5 µM

**Q.** What about the GI50 [15] of the same molecule?
**A.** 8.41 µM

**Q.** And the TGI [15]?
**A.** 30 µM

**Q.** And the GI50 [16]?
**A.** 11.6 µM

**Q.** And the TGI [16]?
**A.** 29.3 µM

**Q.** What about the GI50 [17] of the same molecule?
**A.** 15.3 µM

**Q.** What about the TGI [17] of the same molecule?
**A.** 98.7 µM

**Q.** What about the GI50 [18] of the same molecule?
**A.** 6.03 µM

**Q.** What about the TGI [18] of the same molecule?
**A.** > 100 µM

**Q.** And the GI50 [19]?
**A.** 14.5 µM

**Q.** What about the TGI [19] of the same molecule?
**A.** 87 µM

**Q.** And the GI50 [20]?
**A.** 4.53 µM

**Q.** What about the TGI [20] of the same molecule?
**A.** > 100 µM

**Q.** And the GI50 [21]?
**A.** 3.93 µM

**Q.** What about the TGI [21] of the same molecule?
**A.** 50.7 µM

**Q.** And the GI50 [22]?
**A.** 5.71 µM

**Q.** What about the TGI [22] of the same molecule?
**A.** 19.1 µM

**Q.** What about the GI50 [23] of the same molecule?
**A.** 4.25 µM

**Q.** What about the TGI [23] of the same molecule?
**A.** 30.6 µM

**Q.** What about the GI50 [24] of the same molecule?
**A.** 6.92 µM

**Q.** And the TGI [24]?
**A.** 51.5 µM

**Q.** What about the GI50 [25] of the same molecule?
**A.** 4.13 µM

**Q.** And the TGI [25]?
**A.** 48.5 µM

**Q.** What about the GI50 [26] of the same molecule?
**A.** 10 µM

**Q.** And the TGI [26]?
**A.** 38.2 µM

**Q.** And the GI50 [27]?
**A.** 2.21 µM

**Q.** What about the TGI [27] of the same molecule?
**A.** 6.17 µM

**Q.** What about the GI50 [28] of the same molecule?
**A.** 0.225 µM

**Q.** And the TGI [28]?
**A.** 10.8 µM

**Q.** What about the GI50 [29] of the same molecule?
**A.** 4.3 µM

**Q.** What about the TGI [29] of the same molecule?
**A.** > 100 µM
